Data taken from BindingDB's records for doi:10.1021/bi8010362 (Kyoto University, 2008).

The compounds below were run against NADH-ubiquinone oxidoreductase chain 1 (Bos taurus, UniProt P03887) (assay: Inhibition Assay).
Description: Inhibition assay using NADH-ubiquinone oxidoreductase (complex I).

Chain of NADH-ubiquinone oxidoreductase chain 1 (P03887 whole entry): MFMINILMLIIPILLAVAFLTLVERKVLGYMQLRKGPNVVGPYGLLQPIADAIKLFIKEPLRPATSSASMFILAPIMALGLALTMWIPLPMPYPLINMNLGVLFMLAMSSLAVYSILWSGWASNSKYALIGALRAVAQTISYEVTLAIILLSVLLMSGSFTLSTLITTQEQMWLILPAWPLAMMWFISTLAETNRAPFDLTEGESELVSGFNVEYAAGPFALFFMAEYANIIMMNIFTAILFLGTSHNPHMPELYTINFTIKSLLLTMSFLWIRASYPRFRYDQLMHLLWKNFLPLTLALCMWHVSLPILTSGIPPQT

Point of comparison: CN(C[C@H](O)CCCCCCCc1ccccc1)[C@H]1CCCC[C@@H]1N(C)C[C@H](O)CCCCCCCc1ccccc1 [Piperazine derivative, 15], IC50 670 nM. Against it:
- CCCCCC(O)CN1CCN(CC(O)CCCCC)CC1 (centres undefined) [Piperazine derivative, 4] — higher, > 22000 nM
- CCCCCCCCCCC(O)CN1CCN(CC(O)CCCCCCCCCC)CC1 (centres undefined) [Piperazine derivative, 5] — 260-fold lower, 2.6 nM
- CCCCCCCCCCCCCCC(O)CN1CCN(CC(O)CCCCCC)CC1 (centres undefined) [Piperazine derivative, 6] — 26-fold lower, 26 nM
- CCCCCCCCCCCCCCCCC(O)CN1CCN(CC(O)CCCC)CC1 (centres undefined) [Piperazine derivative, 7] — 6.1-fold lower, 110 nM
- O[C@H](CCCCCc1ccccc1)CN1CCN(C[C@H](O)CCCCCc2ccccc2)CC1 [Piperazine derivative, 8] — 56-fold lower, 12 nM
- O[C@H](CCCCCCc1ccccc1)CN1CCN(C[C@H](O)CCCCCCc2ccccc2)CC1 [Piperazine derivative, 9] — 390-fold lower, 1.7 nM
- O[C@H](CCCCCCCc1ccccc1)CN1CCN(C[C@H](O)CCCCCCCc2ccccc2)CC1 [Piperazine derivative, 10] — 560-fold lower, 1.2 nM
- O[C@H](CCCCCCCCCc1ccccc1)CN1CCN(C[C@H](O)CCCCCCCCCc2ccccc2)CC1 [Piperazine derivative, 11] — 110-fold lower, 5.9 nM
- O[C@@H](CCCCCCc1ccccc1)CN1CCN(C[C@@H](O)CCCCCCc2ccccc2)CC1 [Piperazine derivative, 12] — 290-fold lower, 2.3 nM
- O[C@H](CCCCCCCc1ccccc1)CN1CCCN(C[C@H](O)CCCCCCCc2ccccc2)CC1 [Piperazine derivative, 13] — 390-fold lower, 1.7 nM
- O[C@H](CCCCCCCc1ccccc1)CN1C[C@H]2C[C@@H]1CN2C[C@H](O)CCCCCCCc1ccccc1 [Piperazine derivative, 14] — 240-fold lower, 2.8 nM
- c1ccc(CCCCCCCN2CCN(CCCCCCCc3ccccc3)CC2)cc1 [Piperazine derivative, 18] — 56-fold lower, 12 nM
- c1ccc(CCCCCCCCN2CCN(CCCCCCCCc3ccccc3)CC2)cc1 [Piperazine derivative, 19] — 300-fold lower, 2.2 nM
- c1ccc(CCCCCCCCCN2CCN(CCCCCCCCCc3ccccc3)CC2)cc1 [Piperazine derivative, 20] — 190-fold lower, 3.6 nM
- c1ccc(CCCCN2CCN(CCCCc3ccccc3)CC2)cc1 [Piperazine derivative, 21] — 1.9-fold higher, 1300 nM
- C[N+]1(C[C@H](O)CCCCCc2ccccc2)CCN(C[C@H](O)CCCCCc2ccccc2)CC1 [Piperazine derivative, 22] — 1.6-fold higher, 1100 nM
- C[N+]1(C[C@H](O)CCCCCc2ccccc2)CC[N+](C)(C[C@H](O)CCCCCc2ccccc2)CC1 (some centres undefined) [Piperazine derivative, 23] — 7-fold higher, 4700 nM
- N#[N+]Nc1c(F)c(F)c(COCCCCC[C@@H](O)CN2CCN(C[C@H](O)CCCCCOc3ccc(I)cc3)CC2)c(F)c1F [Piperazine derivative, 24] — 670-fold lower, 1 nM
